Assay results from PMC8536679, “A small molecule produced by Lactobacillus species blocks Candida albicans filamentation by inhibiting a DYRK1-family kinase” (Nature Communications, 2021).

Target: T1, Yak1 (Candida albicans, UniProt A0A1D8PH81)
T1 construct: full-length, C-terminal 6xHis-3xFlag tag kept; both YAK1 alleles tagged and overexpressed in C. albicans; native purification on anti-Flag gel, eluted with 3xFlag peptide
Experiment: ADP-Glo kinase assay with DYRKtide
Format: biochemical
Conditions: 10 µM ATP, 0.2 mg/mL DYRKtide, 2.5 mM MgCl2, HEPES-NaOH pH 7.2, 40 min; ATP site proposed by docking only

T1 sequence (A0A1D8PH81 entry or part of it): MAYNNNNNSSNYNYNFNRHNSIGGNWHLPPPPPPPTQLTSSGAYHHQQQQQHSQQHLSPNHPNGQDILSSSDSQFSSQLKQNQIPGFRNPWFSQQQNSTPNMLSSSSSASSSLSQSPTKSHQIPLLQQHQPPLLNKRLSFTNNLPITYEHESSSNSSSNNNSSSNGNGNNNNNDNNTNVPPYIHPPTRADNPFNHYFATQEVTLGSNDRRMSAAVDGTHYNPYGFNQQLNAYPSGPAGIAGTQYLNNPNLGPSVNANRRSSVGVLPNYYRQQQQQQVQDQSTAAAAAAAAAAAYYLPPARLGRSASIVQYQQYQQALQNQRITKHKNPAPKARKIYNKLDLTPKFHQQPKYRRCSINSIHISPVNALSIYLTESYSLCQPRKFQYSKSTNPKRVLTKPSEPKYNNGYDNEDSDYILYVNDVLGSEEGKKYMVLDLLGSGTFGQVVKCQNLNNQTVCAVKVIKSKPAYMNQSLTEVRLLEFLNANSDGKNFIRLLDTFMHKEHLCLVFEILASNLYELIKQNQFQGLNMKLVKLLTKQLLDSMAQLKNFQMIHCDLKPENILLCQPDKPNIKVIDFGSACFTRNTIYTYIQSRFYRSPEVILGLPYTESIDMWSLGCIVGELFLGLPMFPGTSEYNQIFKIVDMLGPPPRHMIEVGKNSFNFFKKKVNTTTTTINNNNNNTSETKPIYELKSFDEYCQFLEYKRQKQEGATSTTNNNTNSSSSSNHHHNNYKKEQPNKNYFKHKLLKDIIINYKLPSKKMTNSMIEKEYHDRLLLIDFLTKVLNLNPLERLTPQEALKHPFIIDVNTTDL

SMILES | concentration-dependent inhibition
CCOC(=O)c1nccc2c1[nH]c1ccccc12 [1-ECBC, 1-ethoxycarbonyl-β-carboline] | 1-ECBC and harmine, a known β-carboline scaffold DYRK inhibitor, exhibited concentration-dependent inhibition of Yak1 activity
COc1ccc2c(c1)[nH]c1c(C)nccc12 [harmine] | 1-ECBC and harmine inhibit Yak1 activity in a concentration-dependent manner
